Two compounds from patent US11141496B2, “Use of berberine or derivative thereof in preparing myocardial perfusion imaging agent” (WEST CHINA HOSPITAL, SICHUAN UNIVERSITY, priority 2017, dated 2021) can be followed below.

One data set deals with mouse fibroblasts NIH3T3. The data set can be described thus: [^18F]HX-01 uptake in NIH3T3 cells, with and without CCCP (γ counter). In kind it is cell-based. On the procedure: (§1) As described in method 1.4.4, the suspension of rat cardiomyocytes H9C2, NIH3T3 cells and SD neonatal rat primary cardiomyocytes was adjusted to the concentration of 20×10^4/ml, inoculated in a six-well plate, with 2 ml for each well (containing 4×10^5 cells), and the experimental group and CCCP inhibition group were included, The plate was cultured at 37° C. in 5% CO2 under saturated humidity for 24 h. After the cells adhered, 30 minutes before addition of [^18F]HX-01, the DMEM high-glucose medium in the Petri dish was aspirated and discarded. DMEM high-glucose medium containing CCCP (0.5 μM) was firstly added at 2 ml/well to the cell culture dish in CCCP inhibition group, while an equal volume of DMEM high-glucose medium without CCCP was added to the cell culture dish in the experimental groups, and the dish was incubated at 37° C. in 5% CO2 under saturated humidity for 30 min. Then, 100 μl solution of [^18F]HX-01 dissolved in saline was added to each well at a dose of 2.5 μCi. The plate was incubated at 37° C. in 5% CO2 under saturation humidity. After incubation for 5 min, 10 min, 30 min, 60 min and 120 min, the liquid in the well was collected, and rinsed 3 times with PBS, and all the rinse liquid was collected in the radioimmunotubes. After digestion with 0.25% trypsin, all cells were collected in the radioimmunotubes, and the radioactivity counts of the liquid and cells in the wells were measured with a γ counter, and the data were recorded. Three replicate holes were set for each time point.

The conditions of data set [1]: rabbit, in vivo.
For data set [2] the following is noted: SD rat myocardial infarction model, 350 μCi/rat, up to 120 min.
Data set [3] deals with SD neonatal rat primary cardiomyocytes. Put plainly: [^18F]HX-01 uptake in SD neonatal rat primary cardiomyocytes, with and without CCCP (γ counter). The class given is cell-based. On the procedure:
as §1

A short description of data set [4]: Competitive inhibition test of [^18F]HX-01 and non-radioactive standard [^19F]HX-01 (PET). In kind it is in vivo, New Zealand white rabbit. Conditions: [^19F]HX-01 1 nmol/kg i.v. 30 min before tracer. On the procedure: After anesthesia and fixation, the male New Zealand white rabbits were set as their own control (n=3). On the first day, 2 ml saline was injected into the ear marginal vein of the rabbits. Then, the tracer [^18F]HX-01 was injected, and the dosage was 0.5 mci/kg, and PET scanning was performed immediately as described in 1.4.2. On the second day, non-radioactive standard [^19F]HX-01 was injected through ear edge vein, and the dose of standard substance was 1 nmol/kg, that was dissolved in 2 ml normal saline. 30 min After injection of non-radioactive standard [^19F]HX-01, the tracer [^18F]HX-01 was injected, and the injection doe was 0.5 mCi/kg. After the injection, PET dynamic scanning was performed as described in 1.4.2. […] Using Compassview 5.0 to analyze and process the data, the brain, heart, liver, lung, kidney, bone and muscle of the region of interest (ROI) were drawn on the horizontal axis, and SUVmax was recorded.

A further data set concerns rat cardiomyocytes H9C2. The data set can be described thus: [^18F]HX-01 uptake in H9C2 cells, with and without CCCP (γ counter). In kind it is cell-based. On the procedure: as §1, with “After incubation for 5 min, 10 min, 30 min, 60 min and 120 min, the liquid in the well was collected, and rinsed 3 times with PBS, and all the rinse liquid was collected in the radioimmunotubes.” left out, “Three replicate holes were set for each time point.” left out

For data set [5], the system named is mitochondria of SD neonatal rat primary cardiomyocytes. The data set can be described thus: [^19F]HX-01 localization with red mitochondrial probe M7513 in primary cardiomyocytes. Particulars: 4 μM, 10 min, cardiomyocytes and surrounding mixed cells. In kind it is cell-based. On the procedure: The suspension of primary myocardial cells of SD suckling mice was adjusted to the concentration of 20×10^4/ml, inoculated in a six-well plate, with 2 ml for each well, and then incubated at 37° C. in 5% CO2 under saturated humidity for 24 h. After adherence, the DMEM high glucose medium in each well was aspirated and discarded, and DMEM high glucose medium containing different concentrations of [^19F]HX-01 (6.25, 12.5, 25, 50, 100, 150, and 200 μM) was firstly added, with 2 ml for each well, and each concentration has three replicate wells. After incubation at 37° C. in 5% CO2 under saturated humidity for 1 h, the liquid in each well was aspirated and removed. […] After the wells were washed three times with PBS, the cells were finally observed under a confocal fluorescence microscope with an excitation wavelength of 488 nm.
In order to further clarify the localization characteristics of [^19F]HX-01 in the subcellular organelles of SD rat primary cardiomyocytes, after addition of above different concentrations of [^19F]HX-01 and incubation for 1 h, the medium was discarded, and each well was rinsed with PBS three times. Each well was added the medium containing mitochondrial specific probe with red fluorescence (Mito Tracker Red (M7513), Thermo fisher) and incubated for another 10 min, the medium was removed, and each well was rinsed with PBS three times. […]

For the compound `COc1c(OCCC[18F])ccc2cc3[n+](cc12)CCc1cc2c(cc1-3)OCO2.[Cl-]` [[^18F]HX-01], the figures for the uptake percentage (with mouse fibroblasts NIH3T3 (5 min); in the data set on mouse fibroblasts NIH3T3 (120 min); in data set [3] (30 min)) were 0.78±0.06, 0.91±0.01 and 2.08%±0.13%, respectively. Moreover, the “uptake, normal group vs CCCP inhibition group” value with mouse fibroblasts NIH3T3 (CCCP 0.5 μM, p>0.05) is “did not show a significant difference”. Moreover, the “SUVmax ratio of heart/lung” value in data set [1] is given as “greater than 10”. In addition, the “SUVmax ratio of heart/muscle” value in data set [1] is given as “greater than 10”. In addition, the “uptake in other tissues such as brain, lung, muscle and bone” value in data set [1] is reported as “extremely low”. For the same compound, in data set [2], the “Micro PET image of anterior wall of left ventricle near apical area (infarction)” value is given as “showed a fixed radioactive defect”. Besides, the “uptake percentage (peak value)” value is listed as 2.41%±0.03% in data set [3] (120 min) and 2.89%±0.11% in the data set with rat cardiomyocytes H9C2 (120 min, 2.5 μCi per well). For the same compound, the “intake percentage, normal group vs CCCP inhibition group” value in data set [3] (CCCP 0.5 μM, p>0.05) was “no significant difference in the intake percentage”. Besides, the “kidney uptake (SUVmax), inhibition group vs control group” value in data set [4] is “no statistical significance between the two groups”. For the same compound, in data set [4], the “liver uptake (SUVmax), inhibition group vs control group” value was “no statistical significance between the inhibition group and the control group”. The “myocardial uptake (SUVmax), inhibition group vs control group” value in data set [4] (P<0.001) is reported as “SUVmax value was obviously reduced”. Also, the “lung, bone, muscle and brain uptake (SUVmax), inhibition group vs control group” value in data set [4] (P>0.05) was “not statistically significant”. The “uptake percentage, control group vs CCCP inhibition group” value in the data set with rat cardiomyocytes H9C2 (CCCP 0.5 μM 30 min before tracer) is listed as “didn't show significant difference in the uptake percentage”.

With `ClCc1ccc(C2=c3cc4c5c(c3Oc3c2cc2c6c3CCCN6CCC2)CCC[N+]=5CCC4)cc1.[Cl-]` [M7513], the “distribution of red fluorescence of the probe” value in data set [5] was “appeared in the mitochondria of all cells in a granular distribution”.
